Test results reported in US9340590B2 (priority 2011, dated 2016).
Positions of bridges follow the written chain, without caps; N, C: chain ends. Non-standard residues stand in square brackets, D forms with d. Residues, ends and D or L forms follow the SMILES beside them. Phe(4-guanidino) = N=C(N)Nc1ccc(C[C@H](N)C(=O)O)cc1; hCit = NC(=O)NCCCC[C@H](N)C(=O)O

Legend:
[1] = target: hNav1.7 (Homo sapiens, UniProt Q15858); experiment: cell-based; settings: Nav1.7 Use IC50
[2] = target: hNav1.5 (Homo sapiens, UniProt Q14524); experiment: cell-based
Sequence of hNav1.5 (Q14524 whole entry, looked up): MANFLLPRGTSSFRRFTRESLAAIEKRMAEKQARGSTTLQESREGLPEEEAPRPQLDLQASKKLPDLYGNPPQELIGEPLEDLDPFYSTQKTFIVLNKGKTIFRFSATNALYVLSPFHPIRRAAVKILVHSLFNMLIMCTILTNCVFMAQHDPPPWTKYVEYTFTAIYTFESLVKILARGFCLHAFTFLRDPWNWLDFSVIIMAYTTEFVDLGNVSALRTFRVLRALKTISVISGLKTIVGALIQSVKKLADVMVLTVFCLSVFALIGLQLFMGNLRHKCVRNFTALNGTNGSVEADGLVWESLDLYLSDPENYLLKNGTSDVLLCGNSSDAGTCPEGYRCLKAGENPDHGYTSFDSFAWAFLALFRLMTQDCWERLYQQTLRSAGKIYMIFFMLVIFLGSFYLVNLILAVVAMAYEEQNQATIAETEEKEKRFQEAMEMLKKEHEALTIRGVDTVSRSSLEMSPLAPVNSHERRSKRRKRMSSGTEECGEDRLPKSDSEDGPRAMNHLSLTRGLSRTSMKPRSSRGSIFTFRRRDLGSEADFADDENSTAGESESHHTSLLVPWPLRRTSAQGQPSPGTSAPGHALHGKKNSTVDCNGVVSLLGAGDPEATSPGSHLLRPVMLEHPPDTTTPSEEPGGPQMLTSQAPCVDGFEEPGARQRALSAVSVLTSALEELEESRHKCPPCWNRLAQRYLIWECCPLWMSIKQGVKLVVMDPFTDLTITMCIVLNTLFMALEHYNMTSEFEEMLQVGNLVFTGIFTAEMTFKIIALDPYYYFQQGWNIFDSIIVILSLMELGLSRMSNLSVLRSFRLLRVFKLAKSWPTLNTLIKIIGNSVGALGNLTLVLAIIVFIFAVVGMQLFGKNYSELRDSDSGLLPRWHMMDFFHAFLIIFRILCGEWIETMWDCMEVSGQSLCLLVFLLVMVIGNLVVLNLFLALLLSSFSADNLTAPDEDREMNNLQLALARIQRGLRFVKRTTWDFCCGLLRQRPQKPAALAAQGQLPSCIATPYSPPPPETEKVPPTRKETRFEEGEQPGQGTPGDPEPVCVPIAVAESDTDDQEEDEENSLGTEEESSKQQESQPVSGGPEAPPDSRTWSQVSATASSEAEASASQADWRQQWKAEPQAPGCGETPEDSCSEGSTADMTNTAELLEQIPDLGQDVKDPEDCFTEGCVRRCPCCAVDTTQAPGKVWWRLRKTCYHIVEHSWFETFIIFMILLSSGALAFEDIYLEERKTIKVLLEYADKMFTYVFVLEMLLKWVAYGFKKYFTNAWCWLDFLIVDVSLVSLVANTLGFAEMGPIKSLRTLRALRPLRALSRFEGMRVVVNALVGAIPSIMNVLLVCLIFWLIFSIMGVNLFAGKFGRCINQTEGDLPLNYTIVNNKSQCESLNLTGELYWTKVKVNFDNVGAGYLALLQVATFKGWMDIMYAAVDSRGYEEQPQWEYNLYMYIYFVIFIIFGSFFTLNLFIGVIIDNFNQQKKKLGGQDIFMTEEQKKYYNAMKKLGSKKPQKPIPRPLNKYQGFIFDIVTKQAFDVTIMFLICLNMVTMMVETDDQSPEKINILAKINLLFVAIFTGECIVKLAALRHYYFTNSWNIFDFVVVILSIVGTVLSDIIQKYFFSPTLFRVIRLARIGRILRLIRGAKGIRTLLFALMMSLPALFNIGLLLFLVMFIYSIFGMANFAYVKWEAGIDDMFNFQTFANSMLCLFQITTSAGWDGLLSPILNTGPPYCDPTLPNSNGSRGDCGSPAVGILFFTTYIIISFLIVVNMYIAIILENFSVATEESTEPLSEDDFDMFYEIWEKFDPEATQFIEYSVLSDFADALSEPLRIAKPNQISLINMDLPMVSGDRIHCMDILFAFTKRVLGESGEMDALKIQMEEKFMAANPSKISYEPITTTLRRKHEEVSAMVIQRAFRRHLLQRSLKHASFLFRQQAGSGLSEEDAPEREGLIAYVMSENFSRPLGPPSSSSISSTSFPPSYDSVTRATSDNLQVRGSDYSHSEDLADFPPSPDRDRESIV

Sequence of hNav1.7 (Q15858 whole entry, looked up): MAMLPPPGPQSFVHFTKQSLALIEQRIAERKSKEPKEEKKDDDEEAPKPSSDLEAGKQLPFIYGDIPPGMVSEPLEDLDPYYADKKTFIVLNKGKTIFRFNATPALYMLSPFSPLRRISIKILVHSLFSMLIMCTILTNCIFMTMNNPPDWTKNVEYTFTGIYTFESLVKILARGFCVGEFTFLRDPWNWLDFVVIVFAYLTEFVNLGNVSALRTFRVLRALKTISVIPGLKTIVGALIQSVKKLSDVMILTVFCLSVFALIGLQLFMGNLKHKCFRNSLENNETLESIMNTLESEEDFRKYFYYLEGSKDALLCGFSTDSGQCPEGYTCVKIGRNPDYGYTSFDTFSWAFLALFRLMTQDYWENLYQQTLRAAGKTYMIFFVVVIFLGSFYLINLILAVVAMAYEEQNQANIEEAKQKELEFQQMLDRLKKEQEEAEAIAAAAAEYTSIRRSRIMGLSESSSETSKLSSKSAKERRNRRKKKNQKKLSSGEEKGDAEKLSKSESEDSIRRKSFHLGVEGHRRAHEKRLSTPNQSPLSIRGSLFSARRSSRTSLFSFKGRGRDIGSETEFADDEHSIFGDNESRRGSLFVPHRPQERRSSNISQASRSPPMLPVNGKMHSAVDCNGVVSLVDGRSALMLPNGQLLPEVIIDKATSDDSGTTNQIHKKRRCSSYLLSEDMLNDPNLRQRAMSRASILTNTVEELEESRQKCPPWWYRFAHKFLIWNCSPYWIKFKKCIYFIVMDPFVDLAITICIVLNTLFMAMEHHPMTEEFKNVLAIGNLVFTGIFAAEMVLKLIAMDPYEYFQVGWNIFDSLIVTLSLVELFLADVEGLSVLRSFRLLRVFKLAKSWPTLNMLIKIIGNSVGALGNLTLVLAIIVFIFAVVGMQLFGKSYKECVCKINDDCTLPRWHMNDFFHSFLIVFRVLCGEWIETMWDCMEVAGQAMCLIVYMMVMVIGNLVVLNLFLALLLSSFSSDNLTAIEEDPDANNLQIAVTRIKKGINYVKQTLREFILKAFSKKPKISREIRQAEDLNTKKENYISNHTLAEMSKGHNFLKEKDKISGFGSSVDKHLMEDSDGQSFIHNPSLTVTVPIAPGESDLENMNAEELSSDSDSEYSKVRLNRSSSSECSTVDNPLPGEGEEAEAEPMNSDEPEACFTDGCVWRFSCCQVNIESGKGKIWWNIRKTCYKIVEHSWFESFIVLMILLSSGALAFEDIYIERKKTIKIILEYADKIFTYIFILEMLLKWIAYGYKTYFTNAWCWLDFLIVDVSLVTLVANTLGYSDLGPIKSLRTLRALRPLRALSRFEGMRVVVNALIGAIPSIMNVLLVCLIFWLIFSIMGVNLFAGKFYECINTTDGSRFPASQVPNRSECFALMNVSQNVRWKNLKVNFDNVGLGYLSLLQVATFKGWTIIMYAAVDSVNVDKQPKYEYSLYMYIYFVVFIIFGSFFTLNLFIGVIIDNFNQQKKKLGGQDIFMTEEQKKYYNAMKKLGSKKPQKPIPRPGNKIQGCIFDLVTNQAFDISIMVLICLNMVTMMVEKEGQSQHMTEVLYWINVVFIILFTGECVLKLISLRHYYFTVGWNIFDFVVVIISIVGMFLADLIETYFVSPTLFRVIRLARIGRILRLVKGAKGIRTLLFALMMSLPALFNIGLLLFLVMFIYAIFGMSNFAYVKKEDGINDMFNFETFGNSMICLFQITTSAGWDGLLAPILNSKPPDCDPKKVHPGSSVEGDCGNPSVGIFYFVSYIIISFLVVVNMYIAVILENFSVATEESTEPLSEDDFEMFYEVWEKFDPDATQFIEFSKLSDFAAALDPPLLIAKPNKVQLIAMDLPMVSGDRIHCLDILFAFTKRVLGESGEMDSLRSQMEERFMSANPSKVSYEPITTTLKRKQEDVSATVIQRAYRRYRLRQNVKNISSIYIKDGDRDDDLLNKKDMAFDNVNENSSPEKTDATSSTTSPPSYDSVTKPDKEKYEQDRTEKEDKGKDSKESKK

Structure (SMILES) | IC50 [1] [nM] | IC50 [2] [nM]
CC[C@H](C)[C@@H]1NC(=O)[C@@H]2CSSC[C@@H]3NC(=O)[C@H](C(C)C)NC(=O)[C@H](CC(C)C)NC(=O)[C@H](CC(N)=O)NC(=O)[C@@H]4CCCN4C(=O)[C@H](CCCNC(=N)N)NC(=O)[C@H](CSSC[C@H](NC(=O)[C@@H](N)CC(=O)O)C(=O)N[C@@H](CC(C)C)C(=O)NCC(=O)N[C@@H](C)C(=O)N[C@@H](CCSC)C(=O)N[C@@H](CCCNC(=N)N)C(=O)N[C@@H](CCCCN)C(=O)N2)NC(=O)[C@H](CSSC[C@@H](C(=O)N[C@@H](CCCCN)C(=O)N[C@@H](Cc2ccc(O)cc2)C(=O)N[C@H](C(=O)N[C@@H](Cc2ccccc2)C(N)=O)C(C)C)NC(=O)[C@H](Cc2c[nH]c4ccccc24)NC(=O)[C@H](CCC(=O)O)NC(=O)[C@H](Cc2c[nH]cn2)NC(=O)[C@H]([C@@H](C)O)NC(=O)[C@H](CCCNC(=N)N)NC(=O)[C@H](CO)NC3=O)NC(=O)[C@H](CCCCN)NC(=O)[C@H](CC(=O)O)NC(=O)[C@H](CC(N)=O)NC(=O)[C@H](CC(=O)O)NC(=O)[C@@H]2CCCN2C1=O [[Ala5;Glu28]GpTx-1(1-34)] | 614 | > 10000
CC[C@H](C)[C@@H]1NC(=O)[C@@H]2CSSC[C@@H]3NC(=O)[C@H](C(C)C)NC(=O)[C@H](CC(C)C)NC(=O)[C@H](CC(N)=O)NC(=O)[C@@H]4CCCN4C(=O)[C@H](CCCNC(=N)N)NC(=O)[C@H](CSSC[C@H](NC(=O)[C@@H](N)CC(=O)O)C(=O)N[C@@H](CC(C)C)C(=O)NCC(=O)N[C@@H](C)C(=O)N[C@@H](CCSC)C(=O)N[C@@H](CCCNC(=N)N)C(=O)N[C@@H](CCCCN)C(=O)N2)NC(=O)[C@H](CSSC[C@@H](C(=O)N[C@@H](CCCCN)C(=O)N[C@@H](Cc2ccc(O)cc2)C(=O)N[C@H](C(=O)N[C@@H](Cc2ccccc2)C(N)=O)C(C)C)NC(=O)[C@H](Cc2c[nH]c4ccccc24)NC(=O)[C@H](Cc2ccc(NC(=N)N)cc2)NC(=O)[C@H](Cc2c[nH]cn2)NC(=O)[C@H]([C@@H](C)O)NC(=O)[C@H](CCCNC(=N)N)NC(=O)[C@H](CO)NC3=O)NC(=O)[C@H](CCCCN)NC(=O)[C@H](CC(=O)O)NC(=O)[C@H](CC(N)=O)NC(=O)[C@H](CC(=O)O)NC(=O)[C@@H]2CCCN2C1=O [[Ala5;Guf28]GpTx-1(1-34)] (H-DCLGAMRKCIPDNDKCCRPNLVCSRTH[Phe(4-guanidino)]WCKYVF-NH2; disulfide 2-17, 9-23, 16-30) | 5 | > 10000
CC[C@H](C)[C@@H]1NC(=O)[C@@H]2CSSC[C@@H]3NC(=O)[C@H](C(C)C)NC(=O)[C@H](CC(C)C)NC(=O)[C@H](CC(N)=O)NC(=O)[C@@H]4CCCN4C(=O)[C@H](CCCNC(=N)N)NC(=O)[C@H](CSSC[C@H](NC(=O)[C@@H](N)CC(=O)O)C(=O)N[C@@H](CC(C)C)C(=O)NCC(=O)N[C@@H](C)C(=O)N[C@@H](CCSC)C(=O)N[C@@H](CCCNC(=N)N)C(=O)N[C@@H](CCCCN)C(=O)N2)NC(=O)[C@H](CSSC[C@@H](C(=O)N[C@@H](CCCCN)C(=O)N[C@@H](Cc2ccc(O)cc2)C(=O)N[C@H](C(=O)N[C@@H](Cc2ccccc2)C(N)=O)C(C)C)NC(=O)[C@H](Cc2c[nH]c4ccccc24)NC(=O)[C@H](CCCCNC(N)=O)NC(=O)[C@H](Cc2c[nH]cn2)NC(=O)[C@H]([C@@H](C)O)NC(=O)[C@H](CCCNC(=N)N)NC(=O)[C@H](CO)NC3=O)NC(=O)[C@H](CCCCN)NC(=O)[C@H](CC(=O)O)NC(=O)[C@H](CC(N)=O)NC(=O)[C@H](CC(=O)O)NC(=O)[C@@H]2CCCN2C1=O [[Ala5;HCit28]GpTx-1(1-34)] (H-DCLGAMRKCIPDNDKCCRPNLVCSRTH[hCit]WCKYVF-NH2; disulfide 2-17, 9-23, 16-30) | 25 | > 10000
